Values after ≈ are worked out from the molar mass of the structure shown. Where two headings read alike, the source gives them in different places.
Experiments:
[1] = system: Plasmodium falciparum FCR-3 (chloroquine-resistant); test: In vitro antiplasmodial screening, parasitemia by flow cytometry; type: cell-based; design: Plasmodium falciparum FCR-3 Growth Inhibition (%): concentration or dose not given beside the values; conditions: for Plasmodium falciparum FCR-3 Growth Inhibition (%): mean ± SD; for IC50: Plasmodium falciparum, read-out: Plasmodium falciparum FCR-3 IC50
Procedure: (§1) The antimalarial activity assay was performed using Plasmodium falciparum 3D7 (chloroquine-sensitive) and FCR-3 (chloroquine-resistant) reference strains, which were cultured in vitro following the method described by Trager et al. with some modifications.
(§2) The experiments were performed in 96-well culture plates, where the stock solutions of compounds 1–12 (1, 0.1, 0.01, and 0.001 µg/mL) were tested. A total of 100 µL of each product was distributed in triplicate on the culture plates, and 100 µL of a red blood cell suspension (4% hematocrit, final parasitemia of 1% ring stage) was added, resulting in a final volume of 200 µL. The test plates were incubated at 37 °C for 48 h, and parasitemia was determined by flow cytometry (BDFACScalibur). Erythrocytes were taken from each well culture plate, and 100 µL of ethidium bromide (10 µg/mL) was added and incubated for 30 min. A total of 100,000 cells per well culture plate were acquired and analyzed. The IC50 of the pure products was determined by a regression curve of the percentage inhibition of parasite activity as a function of the logarithmic dose. Chloroquine diphosphate was used as the reference drug.

[2] = system: Plasmodium falciparum 3D7 (chloroquine-sensitive); test: as above; type: cell-based; design: Plasmodium falciparum 3D7 Growth Inhibition (%): concentration or dose not given beside the values; conditions: for Plasmodium falciparum 3D7 Growth Inhibition (%): mean ± SD; for IC50: Plasmodium falciparum, read-out: Plasmodium falciparum 3D7 IC50
Procedure: as §1, §2

[3] = system: Salmonella typhimurium (ATCC 19585); test: Minimum inhibitory concentration, broth dilution method; type: cell-based; conditions: Salmonella enterica, read-out: MIC S. typhimurium G−
Procedure: (§3) The microorganisms used were Staphylococcus aureus (ATCC 25923), Proteus mirabilis (ATCC 12453) Enterococcus faecalis (ATCC 29212), Escherichia coli (ATCC 25922), Salmonella typhimurium (ATCC 19585), and Klebsiella pneumoniae (ATCC 700603).
(§4) The antimicrobial activity of the phenylaminonaphthoquinones 1–12 was determined by the broth dilution method. The following concentrations were tested: 200, 100, 50, 25, and 12.5 μg/mL. After incubation, the microbial growth was examined. The results are expressed in minimum inhibitory concentration (MIC), the lowest concentration of phenylaminonaphthoquinones with no visible growth. The bactericidal/bacteriostatic activity was determined by sub-cultivation of the samples in normal culture media at appropriate temperatures and incubation times. The MIC of each compound was performed in triplicate. The compounds 1–12 were dissolved in DMSO. Cefazolin and cefotaxime were used as positive controls at the same compound concentrations.

[4] = system: Enterococcus faecalis (ATCC 29212); test: as above; type: cell-based
Procedure: as §3, §4

[5] = system: Escherichia coli (ATCC 25922); test: as above; type: cell-based
Procedure: as §3, §4

[6] = system: Staphylococcus aureus (ATCC 25923); test: as above; type: cell-based; conditions: for MIC: Staphylococcus aureus; for MIC S. aureus G+: broth dilution
Procedure: as §3, §4

[7] = system: Proteus mirabilis (ATCC 12453); test: as above; type: cell-based
Procedure: as §3, §4

[8] = system: Klebsiella pneumoniae (ATCC 700603); test: as above; type: cell-based
Procedure: as §3, §4

[9] = Experimental log P, shake-flask method n-octanol/water; type: physicochemical; conditions: 25 ± 1 °C
Procedure: The mixture was then allowed to stand for 24 h at the same temperature for further phase separation. A stock solution with a concentration of 0.01 mol per liter in water, pre-saturated with n-octanol, was prepared for each compound. Duplicate test vessels containing a mixture of the stock solution and n-octanol (pre-saturated with water) were shaken on a vortex shaker for 5 min. Phase separation was achieved by centrifugation of the vessels for 3 min at 4000× g (25 ± 1 °C), and the concentration of the solute in the water phase (C water) was measured from their absorbance at 205 nm using a UV spectrophotometer. The partition coefficient was calculated using the following equation. Log Po/w = Log(C n-octanol/C water)
All the measurements were carried out at room temperature (25 ± 1 °C). In order to check the performance of the method, aniline was used as a reference substance.

[10] = FCR-3 chloroquine-resistant, 48 h
[11] = FCR3, FCR-3 chloroquine-resistant, 48 h
[12] = 3D7 chloroquine-sensitive, 48 h
[13] = ATCC29212, broth dilution, triplicate, read-out: MIC E. faecalis G+
[14] = ATCC25922, broth dilution, triplicate, read-out: MIC E. coli G−
[15] = ATCC25923, broth dilution, triplicate, read-out: MIC S. aureus G+
[16] = ATCC12453, broth dilution, triplicate, read-out: MIC P. mirabilis G+
[17] = ATCC700603, broth dilution, triplicate, read-out: MIC K. pneumonia G−
[18] = ATCC29212, read-out: MIC E. faecalis G+
[19] = ATCC25922, read-out: MIC E. coli G−
[20] = ATCC25923, read-out: MIC S. aureus G+, broth dilution, triplicate
[21] = ATCC12453, read-out: MIC P. mirabilis G+
[22] = ATCC700603, read-out: MIC K. pneumonia G−

| SMILES | Plasmodium falciparum FCR-3 Growth Inhibition (%) [1, 10] | IC50 [1, 11] | Plasmodium falciparum 3D7 Growth Inhibition (%) [2, 12] | IC50 [2, 12] | MIC ([3]; broth dilution, triplicate) | MIC [4, 13] | MIC [5, 14] | MIC [6, 15] | MIC S. aureus G+ ([6]; triplicate) | MIC [7, 16] | MIC [8, 17] | logP [9] | other results |
| --- | --- | --- | --- | --- | --- | --- | --- | --- | --- | --- | --- | --- | --- |
| COc1ccc(OC)c(NC2=C(Cl)C(=O)c3ccccc3C2=O)c1 [Compound 10] | 21.0 ± 4.0% | > 1 µg/mL | 20.0 ± 3.0% | > 1 µg/mL | 31.7 µg/mL (≈ 92.2 µM) | 70.8 µg/mL (≈ 206 µM) | 23.5 µg/mL (≈ 68.4 µM) | 3.2 to 5.7 µg/mL (≈ 9.31 to 16.6 µM) | 4.7 µg/mL (≈ 13.7 µM) | > 50 µg/mL | > 50 µg/mL | 1.94 ± 0.56 | – |
| O=C1C=C(Nc2ccc(O)cc2)C(=O)c2ccccc21 [Compound 5] | 61.0 ± 2.0% | – | 18.0 ± 1.0% | – | – | – | – | – | 3.2 µg/mL (≈ 12.1 µM) | – | – | 1.17 ± 0.81 | IC50 ([1]; FCR3, 48 h): 0.78 µg/mL (≈ 2.94 µM); IC50 ([2]; 3D7, 48 h): > 1 µg/mL; MIC [3]: > 50 µg/mL; MIC [4, 18]: > 50 µg/mL; MIC [5, 19]: > 50 µg/mL; MIC [6, 20]: 3.2 to 5.7 µg/mL (≈ 12.1 to 21.5 µM); MIC [7, 21]: 24.8 µg/mL (≈ 93.5 µM); MIC [8, 22]: > 50 µg/mL |
| O=C1C(Cl)=C(Nc2ccccc2)C(=O)c2ccccc21 [Compound 2] | 13.0 ± 2.0% | > 1 µg/mL | 37.0 ± 1.0% | > 1 µg/mL | > 50 µg/mL | > 50 µg/mL | > 50 µg/mL | 36.5 µg/mL (≈ 129 µM) | – | 39.9 µg/mL (≈ 141 µM) | > 50 µg/mL | 1.61 ± 0.11 | – |
| Cc1nnc(SCC2=C(C(=O)O)N3C(=O)[C@@H](NC(=O)Cn4cnnn4)[C@H]3SC2)s1 [CFZ, cefazolin, reference compound] | – | – | – | – | 7.1 µg/mL (≈ 15.6 µM) | 8.4 µg/mL (≈ 18.5 µM) | > 50 µg/mL | 4.2 µg/mL (≈ 9.24 µM) | – | 5.6 µg/mL (≈ 12.3 µM) | 8.5 µg/mL (≈ 18.7 µM) | – | – |
| COc1ccc(NC2=CC(=O)c3ccccc3C2=O)cc1 [Compound 7] | 57.0 ± 1.0% | – | 49.0 ± 2.0% | – | – | – | – | – | 5.7 µg/mL (≈ 20.4 µM) | – | – | 1.39 ± 0.15 | IC50 ([1]; FCR3, 48 h): 0.88 µg/mL (≈ 3.15 µM); IC50 ([2]; 3D7, 48 h): > 1 µg/mL; MIC [3]: 29.9 µg/mL (≈ 107 µM); MIC [4, 18]: 31.2 µg/mL (≈ 112 µM); MIC [5, 19]: > 50 µg/mL; MIC [6, 20]: 3.2 to 5.7 µg/mL (≈ 11.5 to 20.4 µM); MIC [7, 21]: 18.4 µg/mL (≈ 65.9 µM); MIC [8, 22]: 37.3 µg/mL (≈ 134 µM) |
| Cc1ccccc1NC1=C(Cl)C(=O)c2ccccc2C1=O [Compound 4] | 56.0 ± 1.0% | 0.86 µg/mL (≈ 2.89 µM) | 42.0 ± 2.0% | > 1 µg/mL | 32.5 µg/mL (≈ 109 µM) | 37.1 µg/mL (≈ 125 µM) | > 50 µg/mL | > 50 µg/mL | – | 40.9 µg/mL (≈ 137 µM) | 44.6 µg/mL (≈ 150 µM) | 2.2 ± 0.13 | – |
| O=C1C=C(Nc2ccccc2)C(=O)c2ccccc21 [Compound 1, 2-phenylamino-1,4-naphthoquinone] | 65.0 ± 1.0% | 0.74 µg/mL (≈ 2.97 µM) | 58.0 ± 3.0% | 0.16 µg/mL (≈ 0.642 µM) | 38.8 µg/mL (≈ 156 µM) | 49.9 µg/mL (≈ 200 µM) | 26.3 µg/mL (≈ 106 µM) | 3.2 to 5.7 µg/mL (≈ 12.8 to 22.9 µM) | 3.9 µg/mL (≈ 15.6 µM) | 40 µg/mL (≈ 160 µM) | > 50 µg/mL | 1.42 ± 0.21 | – |
| CN(C1=C(Cl)C(=O)c2ccccc2C1=O)c1ccccc1 [Compound 12] | 25.0 ± 5.0% | > 1 µg/mL | 62.0 ± 5.0% | 0.8 µg/mL (≈ 2.69 µM) | 50 µg/mL (≈ 168 µM) | 47.2 µg/mL (≈ 159 µM) | 28.6 µg/mL (≈ 96.1 µM) | 29 µg/mL (≈ 97.4 µM) | – | 11.5 µg/mL (≈ 38.6 µM) | > 50 µg/mL | 2.33 ± 0.02 | – |
| CO/N=C(\C(=O)N[C@@H]1C(=O)N2C(C(=O)O)=C(COC(C)=O)CS[C@H]12)c1csc(N)n1 [CTX, cefotaxime, reference compound] | – | – | – | – | 8.2 µg/mL (≈ 18 µM) | 10.9 µg/mL (≈ 23.9 µM) | > 50 µg/mL | 8.9 µg/mL (≈ 19.5 µM) | – | 8.9 µg/mL (≈ 19.5 µM) | 8.4 µg/mL (≈ 18.4 µM) | – | – |
| CN(C1=CC(=O)c2ccccc2C1=O)c1ccccc1 [Compound 11] | 72.0 ± 2.0% | 0.55 µg/mL (≈ 2.09 µM) | 26.0 ± 8.0% | > 1 µg/mL | > 50 µg/mL | 30.2 µg/mL (≈ 115 µM) | > 50 µg/mL | 3.2 to 5.7 µg/mL (≈ 12.2 to 21.6 µM) | 5.5 µg/mL (≈ 20.9 µM) | 44 µg/mL (≈ 167 µM) | > 50 µg/mL | 2.31 ± 0.3 | – |
| COc1ccc(NC2=C(Cl)C(=O)c3ccccc3C2=O)cc1 [Compound 8] | 34.0 ± 2.0% | > 1 µg/mL | 26.0 ± 2.0% | > 1 µg/mL | 49.9 µg/mL (≈ 159 µM) | 40.1 µg/mL (≈ 128 µM) | > 50 µg/mL | 21.9 µg/mL (≈ 69.8 µM) | – | 52.6 µg/mL (≈ 168 µM) | 49.1 µg/mL (≈ 156 µM) | 1.81 ± 1.04 | – |
| CCN(CC)CCCC(C)Nc1ccnc2cc(Cl)ccc12 (stereo not shown) [CQ, chloroquine, reference compound] | – | – | – | – | – | – | – | – | – | – | – | – | IC50 ([1]; FCR3, 48 h): 0.33 µg/mL (≈ 1.03 µM); Plasmodium falciparum 3D7 IC50 [2, 12]: 0.06 µg/mL |

From publication PMC11870044, “Exploring the Antibacterial and Antiparasitic Activity of Phenylaminonaphthoquinones—Green Synthesis, Biological Evaluation and Computational Study” (International Journal of Molecular Sciences, 2024)
